Measurements published in US10294202B2, “Pyrrolidinones as herbicides” (FMC Corporation, priority 2013, dated 2019).

Tests used:
kochia = assay: Test C pre-/postemergence herbicide test; type: in vivo, Kochia scoparia
Summary of the method: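 Two application timings ran in parallel with identically formulated test chemicals (non-phytotoxic solvent, surfactant included): spray on seeded loam–sand soil, and spray on emerged plants 2 to 18 cm high. Evaluation at 13 to 15 days compared each species with controls, rated from 0 up to 100.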

Russian thistle = assay: Test C pre-/postemergence herbicide test; type: in vivo, Salsola kali; conditions: Preemergence; for Russian Thistle plant response rating: 31 g ai/ha, scale 0 to 100, 0 is no effect and 100 is complete control
From the text: Seeds of plant species selected from blackgrass (Alopecurus myosuroides), ryegrass, Italian (Italian ryegrass, Lolium multiflorum), wheat (winter wheat, Triticum aestivum), galium (catchweed bedstraw, Galium aparine), corn (Zea mays), crabgrass, large (large crabgrass, Digitaria sanguinalis), foxtail, giant (giant foxtail, Setaria faberii), johnsongrass (Sorghum halepense), lambsquarters (Chenopodium album), morningglory (Ipomoea coccinea), nutsedge, yellow (yellow nutsedge, Cyperus esculentus), pigweed (Amaranthus retroflexus), ragweed (common ragweed, Ambrosia elatior), soybean (Glycine max), barnyardgrass (Echinochloa crus-galli), oilseed rape (Brassica napus), waterhemp (common waterhemp, Amaranthus rudis), kochia (Kochia scoparia), oat, wild (wild oat, Avena fatua), surinam grass (Brachiaria decumbens), foxtail, green (green foxtail, Setaria viridis), goosegrass (Eleusine indica), bromegrass, downy (downy bromegrass, Bromus tectorum), nightshade (eastern black nightshade, Solanum ptycanthum), cocklebur (common cocklebur, Xanthium strumarium), cupgrass, woolly (woolly cupgrass, Eriochloa villosa), bermudagrass (Cynodon dactylon), sunflower, (common oilseed sunflower, Helianthus annuus), Russian thistle (Salsola kali) and velvetleaf (Abutilon theophrasti) were planted into a blend of loam soil and sand and treated preemergence with test chemicals formulated in a non-phytotoxic solvent mixture which included a surfactant. At the same time, plants selected from these crop and weed species and also barley (winter barley, Hordeum vulgare), […]), chickweed (common chickweed, Stellaria media), deadnettle (henbit deadnettle, Lamium amplexicaule), and canarygrass (littleseed canarygrass, Phalaris minor) were planted in pots containing Redi-Earth® planting medium (Scotts Company, 14111 Scottslawn Road, Marysville, Ohio 43041) comprising spaghnum peat moss, vermiculite, wetting agent and starter nutrients and treated with postemergence applications of test chemicals formulated in the same manner. Plants ranged in height from 2 to 18 cm (1- to 4-leaf stage) for postemergence treatments. Treated plants and controls were maintained in a greenhouse for 13 to 15 days, after which time all species were compared to controls and visually evaluated. Plant response ratings, summarized in Table C, are based on a scale of 0 to 100 where 0 is no effect and 100 is complete control. A dash (-) response means no test result.

sedge, umbrella = assay: Test C flooded paddy test; type: in vivo, Cyperus difformis; conditions: Flood
Summary of the method: (§1)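 Ratings reflect visual comparison with controls on a 0–100 scale, where 100 is complete control. Compound is dosed into standing paddy water 3 cm deep over 2-leaf-stage plants, kept in the greenhouse 13 to 15 days.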

rice = assay: Test C flooded paddy test; type: in vivo, Oryza sativa; conditions: Flood
Summary of the method: as §1

barnyardgrass = assay: Test C flooded paddy test; type: in vivo, Echinochloa crus-galli; conditions: Flood
Summary of the method: as §1

[1] = Postemergence, 31 g ai/ha, scale 0 (no effect) to 100 (complete control)
[2] = Postemergence, 62 g ai/ha, scale 0 to 100 (0 no effect, 100 complete control)
[3] = Postemergence, 125 g ai/ha, scale 0 to 100 (0 no effect, 100 complete control)
[4] = Postemergence, 250 g ai/ha, scale 0 to 100 (0 no effect, 100 complete control)
[5] = 125 g ai/ha, scale 0 to 100 (0 no effect, 100 complete control)
[6] = Preemergence, 62 g ai/ha, scale 0 to 100
[7] = Preemergence, 125 g ai/ha, scale 0 to 100 (0 no effect, 100 complete control)
[8] = 31 g ai/ha, scale of 0 to 100 where 0 is no effect and 100 is complete control, 13 to 15 days
[9] = 62 g ai/ha, scale of 0 to 100 where 0 is no effect and 100 is complete control, 13 to 15 days
[10] = 125 g ai/ha, scale of 0 to 100 where 0 is no effect and 100 is complete control, 13 to 15 days

SMILES: O=C1NCC(c2ccccc2)C1C(=O)Nc1ccccc1F (racemic) [Compound 81]
- Plant response rating, Kochia (kochia; [1]): 0
- Plant response rating, Kochia (kochia; [2]): 0
- Plant response rating, Kochia (kochia; [3]): 0
- Plant response rating, Kochia (kochia; [4]): 0
- Russian Thistle plant response rating (Russian thistle): 0
- Plant response rating, Russian Thistle (Russian thistle; 62 g ai/ha, scale 0 to 100): 0
- Plant response rating, Russian Thistle (Russian thistle; [5]): 0
- Plant response rating (scale of 0 to 100), Russian Thistle (Russian thistle; 250 g ai/ha): 0

SMILES: Cc1ccccc1NC(=O)C1C(=O)NCC1c1cc(F)c(F)c(F)c1 (racemic) [Compound 35]
- Plant response rating, Kochia (kochia; [6]): 0
- Plant response rating, Kochia (kochia; [7]): 5
- Plant response rating, Russian Thistle (Russian thistle; 62 g ai/ha, scale 0 to 100): 0

SMILES: O=C1NCC(c2cccc(Br)c2)C1C(=O)Nc1cccc(F)c1F (centres unmarked) [Compound 64]
- Plant response rating, Kochia (kochia; [6]): 0
- Plant response rating, Kochia (kochia; [7]): 20
- Plant response rating, Russian Thistle (Russian thistle; 62 g ai/ha, scale 0 to 100): 0
- Plant response rating, Russian Thistle (Russian thistle; [5]): 0

SMILES: O=C1NCC(c2cccc(Br)c2)C1C(=O)Nc1ccccc1F (centres unmarked) [Compound 66]
- Kochia plant response rating (kochia; Preemergence, 31 g ai/ha, scale 0 to 100, 0 is no effect and 100 is complete control): 0
- Plant response rating, Kochia (kochia; [6]): 0
- Plant response rating, Kochia (kochia; [7]): 10
- Russian Thistle plant response rating (Russian thistle): 0
- Plant response rating, Russian Thistle (Russian thistle; 62 g ai/ha, scale 0 to 100): 0
- Plant response rating, Russian Thistle (Russian thistle; [5]): 0

SMILES: O=C1NCC(c2ccc3c(c2)OC(F)(F)O3)C1C(=O)Nc1cccc(F)c1F (centres unmarked) [Compound 62]
- Plant response rating, Kochia (kochia; [6]): 0
- Plant response rating, Kochia (kochia; [7]): 15
- Plant response rating, Russian Thistle (Russian thistle; 62 g ai/ha, scale 0 to 100): 30
- Plant response rating, Russian Thistle (Russian thistle; [5]): 85

SMILES: O=C1NCC(c2ccc(F)c(Cl)c2)C1C(=O)Nc1cccc(F)c1F (centres unmarked) [Compound 59]
- Plant response rating, Kochia (kochia; [6]): 0
- Plant response rating, Kochia (kochia; [7]): 10
- Plant response rating, Russian Thistle (Russian thistle; 62 g ai/ha, scale 0 to 100): 0
- Plant response rating, Russian Thistle (Russian thistle; [5]): 0

SMILES: O=C1NCC(c2ccc(F)cc2)C1C(=O)Nc1ccccc1F (racemic) [Compound 16]
- Plant response rating, Sedge, Umbrella (sedge, umbrella; [8]): 0
- Plant response rating, Sedge, Umbrella (sedge, umbrella; [9]): 0
- Plant response rating, Sedge, Umbrella (sedge, umbrella; [10]): 0
- Plant response rating, Sedge, Umbrella (sedge, umbrella; 250 g ai/ha, scale 0 to 100): 0
- Plant response rating, Kochia (kochia; [6]): 0
- Plant response rating, Kochia (kochia; [7]): 0
- Plant response rating, Rice (rice; [8]): 0
- Plant response rating, Rice (rice; [9]): 0
- Plant response rating, Rice (rice; [10]): 0
- Plant response rating, Rice (rice; 250 g ai/ha, scale 0 to 100): 0
- Plant response rating, Barnyardgrass (barnyardgrass; [8]): 0
- Plant response rating, Barnyardgrass (barnyardgrass; [9]): 0
- Plant response rating, Barnyardgrass (barnyardgrass; [10]): 0
- Plant response rating, Barnyardgrass (barnyardgrass; 250 g ai/ha, scale 0 to 100): 15
- Plant response rating, Russian Thistle (Russian thistle; 62 g ai/ha, scale 0 to 100): 0
- Plant response rating, Russian Thistle (Russian thistle; [5]): 0

SMILES: O=C1NCC(c2cc(F)c(F)c(F)c2)C1C(=O)Nc1ccccc1F (racemic) [Compound 34]
- Plant response rating, Kochia (kochia; [1]): 5
- Plant response rating, Kochia (kochia; [2]): 5
- Plant response rating, Kochia (kochia; [3]): 5
- Plant response rating, Kochia (kochia; [4]): 5
- Plant response rating, Kochia (kochia; [6]): 0
- Plant response rating, Kochia (kochia; [7]): 0
- Plant response rating, Russian Thistle (Russian thistle; 62 g ai/ha, scale 0 to 100): 0
- Plant response rating, Russian Thistle (Russian thistle; [5]): 0
